“And” between values parts separate entries of the source, which are not always exact repeats. Equal values may be shown once. Read-outs that look alike come from different tables or passages of the source.
Legend:
[1] = cited from earlier work
Text: Supplement table1.docx, table 1: TABLE S1 Pharmacokinetic Study of teicoplanin in pediatric patients. | column: Clearance (CL) , L/h; Volume of distribution (Vd) , L || Teicoplanin is a glycopeptide antibiotic with activity against methicillin-resistant Staphylococcus aureus (MRSA) ([Traina and Bonati, 1984]). […] Teicoplanin trough concentration (C min) is closely associated with clinical efficacy. […] Due to widespread systemic inflammation, patients may often have an ARC in PICU patients ([Van Der Heggen et al., 2019]), and increased volume ... || (+ 2 further places)

[2] = ref Svetitsky et al., 2009; cited from earlier work
Method: There are large differences in the optimal dosage regimens provided by the two methods (Table 3). Taken together, optimal dosage regimens based on the C min targets in our study are recommended, which are three loading doses of 10 mg/kg every 12 h, followed by a maintenance dose of 12 mg/kg/day for C min of > 10 mg/L and three loading doses of 13 mg/kg every 12 h, followed by a maintenance dose of 16 mg/kg/day for C min of > 15 mg/L. The reasons are as follows: 1) The maintenance dose based on the C min targets are higher than that based PK/PD targets. In other words, maintenance dose based on ...

[3] = Population pharmacokinetic analysis (NONMEM, one-compartment model) in hospitalized children; type: in vivo, human
Text: This was a retrospective PK study performed in two hospitals in China according to the principles of the current Declaration of Helsinki and Good Clinical Practice (Hospital 1: the First Affiliated Hospital of Xi’an Jiaotong University; Hospital 2: the Affiliated Children Hospital of Xi’an Jiaotong University). The protocol was approved by the institutional review board of each study site (No.XJTU1AF2017LSK-28). All patients aged 1 month to 18 years old receiving teicoplanin (Targocid, Sanofi-Aventis) for proven or suspected MRSA infection were selected for the study over 33-month period (March 2017 and November 2019). Children were excluded if a complete teicoplanin dosing history or precise sampling time was not available. The demographic variables with potential impact on the PK of teicoplanin and details of teicoplanin administration (dose and infusion start and stop times) were extracted from medical records retrospectively by a trained research assistant. If serum creatinine (SCr) readings were unavailable around the teicoplanin dosing (±48 h), the closest available SCr reading would be imputed. Creatinine clearance (CLcr) was estimated by Cockcroft formula: CLcr = (140 – age (years)) ×weight (WT, kg) × 0.85 (if female)/0.818 × SCr (μmol/L), instead of Schwartz formula due to the lack of height data in most children ([Cockcroft and Gault, 1976]).
(§1) Teicoplanin was administered at three loading doses of 10 mg/kg every 12 h, followed by 6–10 mg/kg/day. Types of blood samples included therapeutic drug monitoring (TDM) sample, and opportunistic sample. TDM was typically performed within 30 min preceding a dose at steady state. Samples were centrifuged for 10 min. Serum was separated and stored at −80°C until analysis. The laboratory staff were allowed to identify the opportunistic samples with the timings of blood taking documented and store them at −80°C after routine testing and pretreatment. Teicoplanin concentrations were determined with a validated high performance liquid chromatography method. The calibration curve ranged from 2.5 to 100 mg/L, and lower limit of […] (LLOQ) of this assay was 2.5 mg/L. Intra- and inter-day precision values were 3.5 and 6.2%, respectively ([Wang et al., 2015]). For the samples below the LLOQ, concentration values were recorded as LLOQ of 2.5 mg/L.
Population pharmacokinetic (PPK) analysis was performed using NONMEM (version 7.2). A one-compartment PK model with first-order elimination (ADVAN1 TRANS2) was implemented. The concentration-time data for teicoplanin were modeled by first-order conditional estimation with interaction (FOCE-I). We evaluated inter-individual variability using an exponential error model. Residual variability was selected from additive, proportional, exponential, and combined additive and proportional error models according to acceptable standard errors, physiological plausibility of population clearance (CL) and distribution volume (Vd) estimates, improvement of the objective function value (OFV) and good visual representation of standard diagnostic plots. Demographic characteristics (age, gender, WT), renal functions (blood urea nitrogen, SCr, CLcr), biochemical data (total protein, albumin), status of disease (sepsis, endocarditis), and nephrotoxic medications received during teicoplanin therapy were investigated as potential variables on PK parameters. CLcr was calculated by the Cockcroft formula ([Cockcroft and Gault, 1976]). […]

[4] = Nephrotoxicity and adverse events in patients; type: in vivo, human; settings: all after the last sample was collected
[5] = ref Lukas et al., 2004; cited from earlier work
Text: (§2) Teicoplanin is a glycopeptide antibiotic with activity against methicillin-resistant Staphylococcus aureus (MRSA) ([Traina and Bonati, 1984]). […] Teicoplanin trough concentration (C min) is closely associated with clinical efficacy. For the moderate (such as respiratory tract infections, urinary tract infections and skin and soft-tissue infections) and severe infection (such as sepsis, infective endocarditis, bone an ...

albumin = settings: ref Lukas et al., 2004; cited from earlier work
Text: as §2

[6] = Serum teicoplanin concentrations (TDM and opportunistic samples, HPLC); type: in vivo, human; settings: SD
Method: as §1

[7] = cited from earlier work; remark: listed apart in the source
Text: Teicoplanin is a glycopeptide antibiotic with activity against methicillin-resistant Staphylococcus aureus (MRSA) ([Traina and Bonati, 1984]). […] Teicoplanin trough concentration (C min) is closely associated with clinical efficacy. For the moderate (such as respiratory tract infections, urinary tract infections and skin and soft-tissue infections) and severe infection (such as sepsis, infective endocarditis, bone an ... || There are large differences in the optimal dosage regimens provided by the two methods (Table 3). Taken together, optimal dosage regimens based on the C min targets in our study are recommended, which are three loading doses of 10 mg/kg every 12 h, followed by a maintenance dose of 12 mg/kg/day for C min of > 10 mg/L and three loading doses of 13 mg/kg every 12 h, followed by a maintenance dose of 16 mg/kg/day for C min of > 15 mg/L. The reasons are as follows: 1) The maintenance dose based on the C min targets are higher than that based PK/PD targets. In other words, maintenance dose based on ...

[8] = most recent study in Chinese children, ref Gao et al., 2020

Substance: Teicoplanin
- Mean C min ([1]; 24 h after the first dose, ref Sanchez et al., 1999): 4800 ng/mL
- Mean C min ([1]; 72 h after the first dose, ref Sanchez et al., 1999): 5700 ng/mL
- Mean C min ([1]; 168 h after the first dose, ref Sanchez et al., 1999): 5900 ng/mL
- CL ([1]; PICU Caucasians, ref Aarons et al., 1998, Lukas et al., 2004, Ramos-Martin et al., 2014, Reed et al., 1997, Sanchez et al., 1999, Terragna et al., 1988, Zhao et al., 2015): 0.5 to 1.23 mL/min/kg
- Volume of distribution (Vd) ([1]; children, n=39, England, FPIA, ref Ramos-Martin (2014)): 4.138 L
- Q ([1]; children, n=136, China, population PK, ref Gao (2020)): 0.23 L/h
- Vd in other studies ([1]; children, ref Supplementary Table S1): 0.2 to 1.02 L/kg
- CL estimate [1, 8]: 0.217 mL/min/kg
- Vd [1, 8]: 1.85 L/kg
- CL ([1]; non-PICU Caucasians, ref Aarons et al., 1998, Lukas et al., 2004, Ramos-Martin et al., 2014, Reed et al., 1997, Sanchez et al., 1999, Terragna et al., 1988, Zhao et al., 2015): 0.25 to 0.4 mL/min/kg
- Proportion of children failing to achieve the target C min ([1]; previous clinical studies, ref Sanchez et al., 1999, Strenger et al., 2013, Zhao et al., 2015): 48–89%
- CL in children ([1]; ref Aarons et al., 1998, Lukas et al., 2004, Ramos-Martin et al., 2014, Reed et al., 1997, Sanchez et al., 1999, Terragna et al., 1988, Zhao et al., 2015): 0.25 to 1.23 mL/min/kg
- Overall mean C min ([1]; ref Lukas et al., 2004): 9000 ng/mL
- Vd ([1]; ref Ramos-Martin et al., 2014): 0.2 L/kg
- C min achieved with current maintenance doses in another study ([1]; ref Sanchez et al., 1999): 4800 to 5900 ng/mL
- CL ([1]; two studies in patients admitted to the PICU, ref Reed et al., 1997, Sanchez et al., 1999): 0.75 mL/min/kg and 0.5 mL/min/kg
- Adverse events compared with vancomycin [2]: lower adverse event compared with vancomycin
- Vd, mean of 1,000 bootstrap replicates ([3]; bootstrap): 1.77 L
- CL, mean of 1,000 bootstrap replicates ([3]; bootstrap success rate 96.5%): 0.0718 L/h
- Vd, final model estimate ([3]; population PK, one-compartment, Vd=1.39×θ3(WT/16.71)): 1.39 L
- Estimate of Vd per kg ([3]; this study): 0.15 L/kg
- Typical population value of CL per kg ([3]; this study): 0.233 mL/min/kg
- Children who developed nephrotoxicity during hospitalization [4]: Nine
- Hydrophilicity of the marketed drug [5]: hydrophilic
- Bound to albumin in plasma (albumin): > 90%
- Teicoplanin concentration, mean ± standard deviation ([6]; Hospital 1, n=13, 21 samplings): 9.3 ± 10.1 mg/L
- Teicoplanin concentration, mean ± standard deviation ([6]; Hospital 2, n=212, 304 samplings): 9.1 ± 8.9 mg/L
- Teicoplanin concentration, mean ± standard deviation ([6]; model evaluation data, n = 66, 89 samplings): 9.6 ± 5.6 mg/L
- Teicoplanin concentration, mean ± standard deviation ([6]; model-building data, n = 159, 236 samplings, HPLC, LLOQ 2.5 mg/L): 8.6 ± 12.1 mg/L
- Elimination half-life compared with vancomycin ([7]; ref Kasai et al., 2018): longer elimination half-life than vancomycin
- Linearity of PK ([7]; ref Rowland, 1990): linear PK
- CL in adults ([7]; seven out of ten of the CL reported, ref Byrne et al., 2018, Cazaubon et al., 2017, Kasai et al., Lamont et al., 2005, Soy et al., 2006, Yamada et al., 2012, Yu et al., 1995): lower than 0.01 L/h/kg
